In US5039679A, “Certain derivatives of 1,4-dihydro-5-isopropoxy-1,6-naphthyridine-3-carboxylic acid, pharmaceutical compositions containing them, and methods of using them” (Goedecke Aktiengesellschaft, priority 1989, dated 1991):
Structures can show the parent of a compound that is named as a salt. Where two headings read alike, the source gives them in different places.

Columns and labels:
[1] = pharmacological results, blood pressure lowering activity compared with other derivatives; format: in vivo; conditions: in comparison with the other derivatives, in words
Excerpt: The pharmacological results are even more marked in the case of the […] which were obtained according to the usual methods of racemate separation.

[2] = Solubility in water and artificial gastric juice (Table 1); format: physicochemical
[3] = tested on: Spontaneously Hypertensive Rats; assay: blood pressure lowering after oral administration, Spontaneously Hypertensive Rats (Table 2); format: in vivo
Excerpt: |Spontaneously Hypertensive Rats

[4] = stress test, 2 weeks, heat or light (stability); format: physicochemical
Method: The hydrochloride is unstable even at ambient temperature and a stress test gave, after heating for 2 weeks at 45° C. in the dark, 10% of decomposition products and at ambient temperature in the light 30% of the compound had decomposed after 2 weeks.
In addition, it is also stable under the above-mentioned stress conditions (2 weeks at 45° C. in the dark and 2 weeks at ambient temperature in the light).

[5] = animal experiments, commencement of activity; format: in vivo; conditions: in words
[6] = Spontaneously Hypertensive Rats, 1 mg/kg PO, n = 6, 1 mg/kg

CC1=C(C(=O)OCCN(C)Cc2ccccc2)C(c2ccccc2C(F)(F)F)c2c(ccnc2OC(C)C)N1 (single isomer, unassigned; (+)) [(+)-1,4-dihydro-5-isopropoxy-2-methyl-4-(2-trifluoro-methylphenyl)-1,6-naphthyridine-3-carboxylic acid [2-(N-methyl-N-phenylmethylamino)-ethyl] ester]
blood pressure lowering activity [1]: Especially active

CC1=C(C(=O)OCCN(C)Cc2ccccc2)C(c2ccccc2C(F)(F)F)c2c(ccnc2OC(C)C)N1 (single isomer, unassigned; (+)) [Fumarate, (+)-1,4-dihydro-5-isopropoxy-2-methyl-4-(2-trifluoromethylphenyl)1,6-naphthyridine-3-carboxylic acid [2-(N-methyl-N-phenyl-methylamino)-ethyl] ester fumarate]
Solubility in Artificial Gastric Juice [2]: 1.5%
solubility in water ([2]; in words): considerable lower water solubility
solubility in water ([2]; water): 0.1%
blood pressure lowering action [3, 6]: 26% ± 1.7
commencement of activity ([3]; rats, oral administration, fumarate compared with hydrochloride, in words): somewhat later
blood pressure lowering action ([3]; rats, oral, fumarate compared with hydrochloride, in words): substantially stronger
stability under stress conditions ([4]; 2 weeks at 45° C. in the dark and 2 weeks at ambient temperature in the light, in words): stable

CC1=C(C(=O)OCCN(C)Cc2ccccc2)C(c2ccccc2C(F)(F)F)c2c(ccnc2OC(C)C)N1 (single isomer, unassigned) [Hydrochloride, reference compound]
commencement of activity [5]: very rapid commencement of activity
Solubility in Artificial Gastric Juice [2]: 20%
solubility in water ([2]; in words): good solubility
solubility in water ([2]; water): 20%
blood pressure lowering action [3, 6]: 17% ± 4.4
degraded at 336 h ([4]; after heating for 2 weeks at 45° C. in the dark, read-out: decomposition products): 10%
degraded at 336 h ([4]; ambient temperature in the light, after 2 weeks, read-out: decomposed compound): 30%
stability ([4]; ambient temperature, in words): unstable

CC1=C(C(=O)OCCN(C)Cc2ccccc2)C(c2ccccc2C(F)(F)F)c2c(ccnc2OC(C)C)N1 (racemic) [(±), (±)-1,4-dihydro-5-isopropoxy-2-methyl-4-(2-trifluoromethylphenyl)-1,6-naphthyridine-3-carboxylic acid [2-(N-methyl-N-phenyl-methylamino)-ethyl] ester fumarate]
blood pressure lowering activity [1]: especially marked blood pressure lowering activity
